From BindingDB's records for doi:10.1016/j.ejmech.2016.06.026 (Czech Academy of Sciences, 2016) come the findings set out here.

The nature of experiment [1]: Inhibition of HIV-1 3B reverse transcriptase K103N mutant infected in human MT4 cells assessed as inhibition of viral replication after 5 days by cell titer glo based luciferase reporter gene assay. (In ATP-based viability assays light output follows the ATP content of the culture.)
Experiment [2] is described as follows: Inhibition of reverse transcriptase Y181C mutant in HIV-1 3B infected in human MT4 cells assessed as inhibition of viral replication after 5 days by cell titer glo based luciferase reporter gene assay.

One may read the EC50 as the midpoint of the concentration-response curve. Regarding `COc1cc(F)c(C(=O)c2ccnc(Nc3ccc(C#N)cc3)n2)c(F)c1`, the EC50 is 347 nM in experiment [1] and over 500 nM in experiment [2].
